Laboratory results: US8808702B2, “Sulfide, sulfoxide and sulfone chalcone analogues, derivatives thereof and therapeutic uses thereof” (Temple University-of the Commonwealth System of Higher …, priority 2006, dated 2014)
Where two headings read alike, the source gives them in different places.

Columns and labels:
[1] = system: K562 (chronic myelogenous leukaemia); test: Effect of compounds on tumor cell lines (assay of Latham et al.), K562; type: cell-based; settings: K562 cells, read-out: K 562 potency (IC50)
Protocol: (§1) The effect of the compounds of the invention on tumor cells was determined by the assay described by Latham et al., Oncogene 12:827-837 (1996). Tumor cells K562 (chronic myelogenous leukaemia) or DU145 (prostate cancer) were plated in 12-well dishes at a cell density of 2.5×10^4 cells well. The plated cells were treated 24 hours later with a compound of the invention dissolved in DMSO at multiple concentrations ranging from 1 μM to 100 μM. The plates were examined 96 hours later under an inverted microscope, Olympus CK-2 using an 10× objective, and compound activity was noted by physical observation. When necessary, the total number of viable cells was determined by trypsinizing the wells and counting the number of viable cells, as determined by trypan blue exclusion, using a hemacytometer.
(§2) The representative compounds listed in Tables 1-5 are shown by way of illustration, and are not intended to limit the scope of the invention. The compounds are prepared and tested by methods based on those described above, except that the compound of Table 5 was dissolved in DMSO at multiple concentrations ranging from 0.1 μM to 100 μM

[2] = system: DU145 (prostate cancer); test: Effect of compounds on tumor cell lines (assay of Latham et al.), DU145; type: cell-based; settings: DU145 cells, read-out: DU 145 potency (IC50)
Protocol: as §1, §2

[3] = Table 1, examined 96 hours after treatment, 1 μM to 100 μM in DMSO
[4] = 96 hours after treatment, 1 μM to 100 μM

Compound	IC50 [1, 3]	IC50 [2, 3]	IC50 [1, 4]	IC50 [2, 4]
Cc1ccc(SC(=Cc2cc([N+](=O)[O-])ccc2F)C(=O)c2ccc(Cl)cc2)cc1 [Example 74]	1 to 10 µM	10 to 25 µM	–	–
COc1ccccc1C=C(Sc1ccc(C)cc1)C(=O)c1ccc(Cl)cc1 [Example 75]	10 to 25 µM	25 to 50 µM	–	–
Cc1ccc(SC(=Cc2ccc[nH]2)C(=O)c2ccc(Cl)cc2)cc1 [Example 76]	10 to 25 µM	10 to 25 µM	–	–
Cc1ccc(SC(=Cc2ccc(Cl)c(Cl)c2)C(=O)c2ccc(Br)cc2)cc1 [Example 77]	50 to 100 µM	50 to 100 µM	–	–
Cc1ccc(SC(=Cc2cc(C)cc(C)c2)C(=O)c2ccc(Cl)cc2)cc1 [Example 78]	25 to 50 µM	50 to 100 µM	–	–
COc1ccc(C=C(Sc2ccc(C)cc2)C(=O)c2ccc(Cl)cc2)cc1O [Example 79]	1 to 10 µM	1 to 10 µM	–	–
Cc1ccc(SC(=Cc2c[nH]c3ccccc23)C(=O)c2ccc(Br)cc2)cc1 [Example 80]	10 to 25 µM	10 to 25 µM	–	–
Cc1ccc(SC(=Cc2c[nH]c3ccccc23)C(=O)c2ccc(Cl)cc2)cc1 [Example 81]	1 to 10 µM	10 to 25 µM	–	–
Cc1ccc(SC(=Cc2sccc2C)C(=O)c2ccc(Br)cc2)cc1 [Example 82]	50 to 100 µM	> 100 µM	–	–
Cc1ccc(SC(=Cc2sccc2C)C(=O)c2ccc(Br)cc2)cc1 [Example 83]	50 to 100 µM	50 to 100 µM	–	–
Cc1ccc(SC(=Cc2sccc2C)C(=O)c2ccc(Cl)cc2)cc1 [Example 84]	50 to 100 µM	50 to 100 µM	–	–
Cc1ccc(SC(=Cc2cnc3ccccc3c2)C(=O)c2ccc(Cl)cc2)cc1 [Example 85]	> 100 µM	> 100 µM	–	–
CC(=O)Oc1ccc(C=C(Sc2ccc(C)cc2)C(=O)c2ccc(Cl)cc2)cc1 [Example 86]	1 to 10 µM	10 to 25 µM	–	–
CC(=O)c1ccc(C=C(Sc2ccc(C)cc2)C(=O)c2ccc(Br)cc2)cc1 [Example 87]	50 to 100 µM	50 to 100 µM	–	–
Cc1ccc(SC(=Cc2ccc(Br)cc2)C(=O)c2ccc(Cl)cc2)cc1 [Example 88]	50 to 100 µM	25 to 50 µM	–	–
Cc1ccc(SC(=Cc2ccc(Cl)cc2)C(=O)c2ccc(Br)cc2)cc1 [Example 90]	1 to 10 µM	10 to 25 µM	–	–
Cc1ccc(SC(=Cc2ccc(Cl)cc2)C(=O)c2ccc(Cl)cc2)cc1 [Example 91]	1 to 10 µM	25 to 50 µM	–	–
CCOc1ccc(C=C(Sc2ccc(C)cc2)C(=O)c2ccc(Cl)cc2)cc1OC [Example 93]	10 to 25 µM	25 to 50 µM	–	–
Cc1ccc(SC(=Cc2ccc(F)cc2OC(F)(F)F)C(=O)c2ccc(Br)cc2)cc1 [Example 94]	25 to 50 µM	25 to 50 µM	–	–
Cc1ccc(SC(=Cc2ccc(F)c(C)c2)C(=O)c2ccc(Br)cc2)cc1 [Example 95]	1 to 10 µM	25 to 50 µM	–	–
Cc1ccc(SC(=Cc2ccc(O)c([N+](=O)[O-])c2)C(=O)c2ccc(Cl)cc2)cc1 [Example 96]	25 to 50 µM	10 to 25 µM	–	–
CSc1ccc(C=C(Sc2ccc(C)cc2)C(=O)c2ccc(Br)cc2)cc1 [Example 97]	1 to 10 µM	25 to 50 µM	–	–
COc1ccc(C=C(Sc2ccc(C)cc2)C(=O)c2ccc(Br)cc2)cc1 [Example 99]	10 to 25 µM	50 to 100 µM	–	–
COc1ccc(C=C(Sc2ccc(C)cc2)C(=O)c2ccc(Cl)cc2)cc1 [Example 100]	1 to 10 µM	1 to 10 µM	–	–
Cc1ccc(SC(=Cc2ccc(N(C)C)cc2)C(=O)c2ccc(Br)cc2)cc1 [Example 101]	50 to 100 µM	> 100 µM	–	–
Cc1ccc(SC(=Cc2ccc(N(C)C)cc2)C(=O)c2ccc(Cl)cc2)cc1 [Example 102]	> 100 µM	> 100 µM	–	–
Cc1ccc(SC(=Cc2ccc(Oc3ccccc3)cc2)C(=O)c2ccc(Br)cc2)cc1 [Example 103]	10 to 25 µM	1 to 10 µM	–	–

Compound	IC50 [1, 3]	IC50 [2, 3]	IC50 [1, 4]	IC50 [2, 4]
Cc1ccc(SC(=Cc2ccc(Oc3ccccc3)cc2)C(=O)c2ccc(Cl)cc2)cc1 [Example 104]	10 to 25 µM	10 to 25 µM	–	–
Cc1ccc(SC(=Cc2c[nH]c3ccc(Br)cc23)C(=O)c2ccc(Br)cc2)cc1 [Example 105]	10 to 25 µM	1 to 10 µM	–	–
Cc1ccc(SC(=Cc2c[nH]c3ccc(Br)cc23)C(=O)c2ccc(Cl)cc2)cc1 [Example 106]	1 to 10 µM	1 to 10 µM	–	–
Cc1ccc(SC(=Cc2c[nH]c3ccc(Cl)cc23)C(=O)c2ccc(Br)cc2)cc1 [Example 107]	1 to 10 µM	1 to 10 µM	–	–
Cc1ccc(SC(=Cc2c[nH]c3ccc(Cl)cc23)C(=O)c2ccc(Cl)cc2)cc1 [Example 108]	1 to 10 µM	1 to 10 µM	–	–
Cc1ccc(SC(=Cc2ccc(C)s2)C(=O)c2ccc(Br)cc2)cc1 [Example 109]	50 to 100 µM	> 100 µM	–	–
Cc1ccc(SC(=Cc2ccc(-c3ccccc3)cc2)C(=O)c2ccc(Br)cc2)cc1 [Example 110]	25 to 50 µM	50 to 100 µM	–	–
Cc1ccc(SC(=Cc2ccc(-c3ccccc3)cc2)C(=O)c2ccc(Cl)cc2)cc1 [Example 111]	25 to 50 µM	50 to 100 µM	–	–
O=C(O)c1ccc(C(=O)C(=Cc2ccc(F)c([N+](=O)[O-])c2)Sc2c(F)c(F)c(F)c(F)c2F)cc1 [Example 112]	≤ 1 µM	1 to 10 µM	–	–
Cc1ccc(SC(=Cc2ccc(F)c([N+](=O)[O-])c2)C(=O)c2ccc(Br)cc2)cc1 [Example 113]	1 to 10 µM	1 to 10 µM	–	–
O=C(C(=Cc1cccc(Cl)c1Cl)SCc1ccc(Cl)cc1Cl)c1ccc(Cl)cc1 [Example 114]	–	–	1 to 10 µM	1 to 10 µM
O=C(C(=Cc1c(O)cc(O)cc1O)SCc1ccc(Cl)cc1Cl)c1ccc(Cl)cc1 [Example 115]	–	–	> 100 µM	25 to 50 µM
COc1cc(OC)c(C=C(SCc2ccc(Cl)cc2Cl)C(=O)c2ccc(Cl)cc2)c(OC)c1 [Example 116]	–	–	25 to 50 µM	1 to 10 µM
CCOc1cc(C=C(SCc2ccc(Cl)cc2Cl)C(=O)c2ccc(Cl)cc2)ccc1O [Example 117]	–	–	1 to 10 µM	10 to 25 µM
O=C(C(=Cc1c[nH]c2ccccc12)SCc1ccc(Cl)cc1Cl)c1ccc(Cl)cc1 [Example 118]	–	–	10 to 25 µM	10 to 25 µM
Cc1ccsc1C=C(SCc1ccc(Cl)cc1Cl)C(=O)c1ccc(Cl)cc1 [Example 119]	–	–	50 to 100 µM	10 to 25 µM
CN(C)c1ccc(C=C(SCc2ccc(Cl)cc2Cl)C(=O)c2ccc(Cl)cc2)cc1 [Example 120]	–	–	> 100 µM	50 to 100 µM
O=C(C(=Cc1ccc(OCc2ccccc2)cc1)SCc1ccc(Cl)cc1Cl)c1ccc(Cl)cc1 [Example 121]	–	–	10 to 25 µM	1 to 10 µM
O=C(C(=Cc1ccc(Cl)cc1)SCc1ccc(Cl)cc1Cl)c1ccc(Cl)cc1 [Example 122]	–	–	1 to 10 µM	10 to 25 µM
O=C(C(=Cc1c[nH]c2ccc(Br)cc12)SCc1ccc(Cl)cc1Cl)c1ccc(Cl)cc1 [Example 123]	–	–	1 to 10 µM	10 to 25 µM
Cc1ccc(C=C(SCc2ccc(Cl)cc2Cl)C(=O)c2ccc(Cl)cc2)s1 [Example 124]	–	–	50 to 100 µM	50 to 100 µM
COc1ccc(C=C(SCc2ccccc2Cl)C(=O)c2ccc(Cl)cc2)c(OC)c1OC [Example 125]	–	–	1 to 10 µM	10 to 25 µM
COc1cc(OC)c(C=C(SCc2ccccc2Cl)C(=O)c2ccc(Cl)cc2)c(OC)c1 [Example 126]	–	–	10 to 25 µM	50 to 100 µM
CN(C)c1ccc(C=C(SCc2ccccc2Cl)C(=O)c2ccc(Cl)cc2)cc1 [Example 127]	–	–	50 to 100 µM	> 100 µM
O=C(C(=Cc1ccc(OCc2ccccc2)cc1)SCc1ccccc1Cl)c1ccccc1Cl [Example 128]	–	–	1 to 10 µM	1 to 10 µM
O=C(C(=Cc1ccc(Br)cc1)SCc1ccccc1Cl)c1ccc(Cl)cc1 [Example 129]	–	–	1 to 10 µM	10 to 25 µM
